Consider nine compounds from patent publication EP4700025A1, “AMIDE COMPOUND, PHARMACEUTICAL COMPOSITION COMPRISING SAME, AND USE THEREOF” (Suzhou Genhouse Bio Co., Ltd., priority 2023, dated 2024).

Data set [1] relates to SDMA. As to the kind of experiment: SDMA Inhibition Assay in HCT-116 cells. The class given is cell-based. The following applies: Homo sapiens, HCT-116, 96 hours. The method, then: (§1) The next day, the cells were treated with the compounds at different concentrations (with an initial concentration of 10 µM, 5-fold dilution, 9 concentration gradients). After 96 hours, the culture medium was pipetted out and the cells were washed 2 times with 100 µL of PBS. The cells were then fixed with 4% paraformaldehyde and incubated at room temperature for 20 min. The fixative solution was discarded, and the cells were washed with PBS. 150 µL of specialized blocking solution (containing 1% Triton-100) was added to each well for blocking at room temperature for 2 hours, and the plate was washed with PBS to remove excess blocking solution. […] The cells were incubated at 4 °C overnight. The next day, the cells were separately washed 2 times with 1× PBST. […] The cells were incubated at room temperature for 2 hours. The cells were washed 2 times with 1× PBST and 1 time with PBS. Fluorescence signals at 700 nm and 800 nm were separately detected using a Li-COR Odyssey two-color near-infrared laser imager. The inhibition rates were calculated, and the EC50 values were determined by fitting using the GraphPad Prism 7.0 software. Table 3. Inhibition of SDMA by test compounds

Data set [2] concerns the target T1, CYP450 3A4 (Homo sapiens, UniProt P08684).
T1 construct: from tissue; host or cells: human liver microsomes
In words: Inhibition of human liver microsome CYP450 enzyme 3A4. In kind it is in vitro ADME. The following applies: human, microsomes, pH 7.4. Here is the method:
100 mM K-Buffer: 9.5 mL of stock solution A was mixed with 40.5 mL of stock solution B, the total volume was adjusted to 500 mL with ultrapure water, and the buffer was titrated to pH 7.4 with KOH or H3PO4. • Starting material A (1 M potassium dihydrogen phosphate): 136.5 g of potassium dihydrogen phosphate in 1 L of water; • Stock solution B ([…]): 174.2 g of potassium dihydrogen phosphate in 1 L of water.
The test substance powder was prepared into a stock solution at a certain concentration with DMSO or another organic solvent, which was then further diluted with a suitable organic solvent.
The liver microsomal in vitro incubation system for the CYP450 enzyme metabolism phenotype study was a biochemical reaction of the prepared liver microsomes supplemented with a redox coenzyme and an enzyme-specific selective inhibitor under simulated physiological temperature and physiological environment conditions.
The concentration of the parent drug or a metabolite thereof in the incubation solution was determined by LC-MS/MS. and the IC50 value was calculated.
For orientation: Liver microsomes are a subcellular fraction often used to study metabolism.

For data set [3], the system named is HCT-116-MTAP^-/-. In words: CCK8 proliferation inhibition, HCT-116-MTAP^-/-. The class given is cell-based. The note with it: Homo sapiens, 192 h; HCT-116-MTAP^-/- (MTAP-deficient); CCK8, 8 days after drug treatment. Here is the method: (§2) The above normally growing cells were digested with a cell trypsinization solution, centrifuged, counted, and seeded into a 96-well plate at an appropriate cell density (2000 cells/well) at 100 µL/well. The next day after cell seeding, the compounds at different concentrations were added to the wells. Three replicate wells were set for each concentration point, and a corresponding DMSO negative control group was also set. CCK8 solution was added to each well 8 days after drug treatment. The plate was incubated at 37 °C for a period of time (OD450 of the vehicle group reached 1.0 or higher) before the absorbance at 450 nm was read using a microplate reader. The inhibition rates were calculated, and the EC50 values were determined by fitting using the GraphPad Prism 7.0 software. Table 2. EC50 values of compounds at cellular level

In data set [4] the test system is SDMA. In words: SDMA Inhibition Assay in A549 cells. The class given is cell-based. The note with it: Homo sapiens, A549, 96 hours. Here is the method:
as §1

Data set [5] concerns A549. In words: CCK8 proliferation inhibition, A549. In kind it is cell-based. The note with it: Homo sapiens, 192 h, CCK8, 8 days after drug treatment. Here is the method: as §2
In data set [6] the test system is HCT-116. In words: CCK8 proliferation inhibition, HCT-116. The class given is cell-based. The note with it: Homo sapiens, 192 h, CCK8, 8 days after drug treatment. Here is the method:
as §2

Data set [7] deals with NCI-H838 cells. As to the kind of experiment: Pharmacodynamic study, NCI-H838 subcutaneous xenograft. The class given is in vivo, mouse. Here is the method: Human non-small cell lung cancer NCI-H838 cells were cultured in monolayer in vitro using the McCoy 5A culture medium (HyClone) containing 10% fetal bovine serum (BI) and 1% penicillin and streptomycin (Beyotime) in an incubator at 37 °C with 5% CO2. The cells were digested with trypsin 2 to 3 times weekly for passaging. When the saturation degree of the cells was 80% to 90%, the cells were collected, counted, and inoculated. 5 × 10^6 (0.1 mL) NCI-H838 cells were subcutaneously inoculated on the right back of each mouse. On about day 29 after inoculation of the cells, the mean tumor volume reached 156 mm^3. The mice were randomly grouped for administration (the animals were divided into an administration group and a control group, with 6 animals in each group). The day of grouping was designated as d0, and intragastric administration was started on d1. The administration was performed once daily at an administration volume of 10 mL/kg. Vehicle control was administered to the control group. The tumor volume was measured 2 to 3 times weekly, and meanwhile, the mice were weighed and the data were recorded; daily observations were made to record the body surface signs of the mice. After the experiment was completed, the tumors were collected, weighed, and photographed for recording.
Calculation formula for tumor volume: Tumor volume (mm^3) = 1/2 × (a×b^2) [formula] (note: a represents long diameter and b represents short diameter) [formula]

In data set [8] the test system is SDMA. In words: SDMA Inhibition Assay in HCT-116-MTAP^-/- cells. In kind it is cell-based. The following applies: Homo sapiens, 96 hours. The method, then: as §1
The nature of data set [9]: Mouse brain-to-blood and tumor tissue-to-blood drug concentration ratio (PC-9 tumor-bearing mice). In kind it is in vivo, Balb/c-nude female mice. The note with it: 5 mg/kg PO, PC-9 tumor-bearing mice. Here is the method:
Human lung cancer PC-9 cells were cultured in monolayer in vitro using the 1640 culture medium (HyClone) containing 10% fetal bovine serum (BI) and 1% penicillin and streptomycin (Beyotime) in an incubator at 37 °C with 5% CO2. The cells were digested with trypsin 2 to 3 times weekly for passaging. When the saturation degree of the cells was 80% to 90%, the cells were collected, counted, and inoculated. 5 × 10^6 (0.2 mL, 1:1 gel addition) PC-9 cells were subcutaneously inoculated into the right back of Balb/c-nude female mice, and the mice were used for subsequent PK and tissue distribution experiments after the mean tumor volume reached about 500 mm^3. On the day of administration, mice were weighed for actual body weight and the administration volume was calculated. In each group of 9 mice, the compound was administered by single intravenous injection or oral gavage. Whole blood samples were collected via the orbit at prescribed time points. After the blood sample collection, the samples were immediately transferred to labeled commercial sample tubes containing K2-EDTA (0.85 to 1.15 mg), followed by centrifugation (3200× g, 4 °C, 10 min) and plasma collection. The plasma was transferred to a pre-cooled centrifuge tube, frozen in dry ice, and then stored in an ultra-low temperature freezer at -60 °C or lower until the LC-MS/MS analysis was performed. Tumor and brain tissues were collected after the animals were euthanized using CO2 at prescribed time points, frozen in liquid nitrogen, and stored in an ultra-low temperature freezer at -60 °C or lower until the LC-MS/MS analysis was performed. 20 µL of the plasma sample or brain/tumor tissue homogenate was added to 80 µL of an internal standard solution (a 50 ng/mL solution of propafenone in acetonitrile). The plate was sealed using a film sealer at 165 °C, shaken on a micro oscillator (at the maximum vibration speed) for 10 min, and centrifuged at 4000 rpm for 20 min using a low-speed benchtop centrifuge; 10 µL of the supernatant was transferred and added to 90 µL of acetonitrile. The mixture was vortexed and mixed well, and then the plate was sealed using the film sealer at 165 °C. After the mixture was vortexed and mixed well, 1 µL of the supernatant was subjected to LC-MS/MS analysis.
• Brain-to-blood drug concentration ratio of mice at the same time point = drug concentration in brain tissue/drug concentration in plasma • Tumor tissue-to-blood drug concentration ratio of mice at the same time point = drug concentration in tumor tissue/drug concentration in plasma

A value given as a limit tells only on which side of the number the result lay.

T1 sequence (P08684 whole entry): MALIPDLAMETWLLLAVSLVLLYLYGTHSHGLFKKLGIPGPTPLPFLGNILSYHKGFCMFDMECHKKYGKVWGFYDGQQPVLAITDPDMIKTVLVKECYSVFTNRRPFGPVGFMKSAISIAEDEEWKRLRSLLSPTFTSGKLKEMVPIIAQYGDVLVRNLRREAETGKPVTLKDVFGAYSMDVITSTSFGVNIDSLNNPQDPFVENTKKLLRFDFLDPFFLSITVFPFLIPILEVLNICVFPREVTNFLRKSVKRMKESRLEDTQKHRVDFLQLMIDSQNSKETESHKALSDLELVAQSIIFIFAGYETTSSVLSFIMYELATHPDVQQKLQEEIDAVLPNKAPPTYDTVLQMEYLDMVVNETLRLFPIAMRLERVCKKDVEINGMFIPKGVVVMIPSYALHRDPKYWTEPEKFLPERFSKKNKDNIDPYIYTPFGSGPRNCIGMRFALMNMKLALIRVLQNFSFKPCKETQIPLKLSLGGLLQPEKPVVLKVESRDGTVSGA

With `Cn1ncc2c(N)nc3cnc(C(=O)N(Cc4ccc5c(c4)OC(F)(F)O5)C4CC4)cc3c21` [Example I-37], the EC50 in data set [1] worked out at 205 nM; in data set [3], 10.1 nM; in [4] it was 2.7 nM; in [5] it was 72.7 nM; in [6], 545 nM; in data set [8] it was 1.9 nM. In data set [2], the IC50 was over 10000 nM. Moreover, the “Day 31 TGI” value in data set [7] (10 mpk PO QD) stood at 58%; in data set [7] (30 mpk PO QD), 71%; in data set [7] (100 mpk PO QD), 104%.

Turning to `Cn1ncc2c(N)nc3cc(C#N)c(C(=O)N4CCOC[C@@H]4c4ccc5c(c4)OC(F)(F)O5)cc3c21` [Example I-53], the EC50 in [1] was found to be 68.7 nM; in data set [3] it was 5.3 nM; in data set [4], 1 nM; in [5] it was 15.5 nM; in data set [6] it was 210 nM; in data set [8] it was 0.7 nM.

In the case of `Cn1ncc2c(N)nc3cc(F)c(C(=O)N(Cc4ccc5c(c4)OC(F)(F)O5)C[C@@H]4COCCO4)cc3c21` [Example I-27], the EC50 in [1] was determined as 120 nM; in data set [3], 4.2 nM; in data set [4], 0.8 nM; in data set [5] it was 24.4 nM; in data set [6] it was 510 nM; in data set [8], 1 nM.

As to `Cn1ncc2c(N)nc3cc(F)c(C(=O)N(Cc4ccc5c(c4)OC(F)(F)O5)C[C@H]4COCCO4)cc3c21` [Example I-30], the half-maximal effective concentration (EC50) in data set [1] was 125 nM; in [3] it was 6.4 nM; in data set [4], 1.9 nM; in data set [5], 38.5 nM; in data set [6] it was 411 nM; in data set [8], 2 nM.

For the compound `CC1OCc2c1c(N)nc1cc(F)c(C(=O)N3CCOC[C@@H]3c3ccc4c(c3)OC(F)(F)O4)cc21` (stereo partly drawn) [Example I-34], the EC50 in [1] amounted to 293 nM; in data set [3], 9 nM; in data set [4], 2.8 nM; in [5], 70.8 nM; in data set [6], 1630 nM; in [8], 3.1 nM.

With `Cn1ncc2c(N)nc3cc(F)c(C(=O)N(Cc4ccc5c(c4)OC(F)(F)O5)C4COC4)cc3c21` [Example I-29], the half-maximal effective concentration (EC50) in data set [1] was determined as 292 nM; in [3], 6.1 nM; in data set [4] it was 2.7 nM; in [5], 50.6 nM; in data set [6], 1210 nM; in [8], 2.6 nM.

For the compound `Cn1ncc2c(N)nc3cc(C#N)c(C(=O)N(Cc4ccc5c(c4)OC(F)(F)O5)C4CC4)cc3c21` [Example I-54], the EC50 in data set [1] amounted to 61.7 nM; in [3], 4.2 nM; in [4] it was 1.3 nM; in [5], 28.9 nM; in [6], 672 nM; in data set [8], 1.8 nM.

With `Cn1ncc2c(N)nc3cnc(C(=O)N4CCN(C5CC5)CC4c4ccc5c(c4)OC(F)(F)O5)cc3c21` (racemic) [Example I-112], the “Brain-to-blood drug concentration ratio” value in data set [9] (1 h) is 1.17; in data set [9] (4 h), 3.05. Also, the “Drug concentration in blood” value was found to be 220 ng/mL in data set [9] (1 h) and 10.3 ng/mL in data set [9] (4 h). The “Drug concentration in brain” value in data set [9] (1 h) is given as 258 ng/mL; in data set [9] (4 h), 31.3 ng/mL. Further, the “Drug concentration in tumor tissue” value in [9] (1 h) is on record as 346 ng/mL; in [9] (4 h), 93 ng/mL. The “Tumor tissue-to-blood drug concentration ratio” value in data set [9] (1 h) came to 1.57; in data set [9] (4 h) it was 9.05. The EC50 was 285 nM in [1], 57 nM in data set [3], over 10000 nM in data set [6] and 2.9 nM in data set [8].

In the case of `Cn1ncc2c(N)nc3cnc(C(=O)N4CCCC[C@@H]4c4ccc5c(c4)OC(F)(F)O5)cc3c21` [Example I-111], the EC50 was determined as 254 nM in data set [1]; 15 nM in data set [3]; 1.6 nM in data set [4]; 77 nM in data set [5]; 2170 nM in data set [6]; 1 nM in data set [8].

As usually defined, the EC50 is the concentration giving half of the maximal effect. The IC50 is the concentration at which inhibition is half-maximal. The low end stands for inhibition by little substance, the high end for a need for much substance.
